Laboratory results taken from patent publication US8614237B2, “Benzofuran-4,5-diones as selective peptide deformylase inhibitors” (Sloan-Kettering Institute for Cancer Research, priority 2009, dated 2013).

Tests used:
EcPDF [1] = test system: EcPDF
Experimental: Head of the field: EcPDF %I 10uM
(§4) Specificity profiling of the derivatives of benzofuran-4,5-diones.
Where the first naming reader finds the target: head: EcPDF %I 10uM

MMP-1 = MMP-1 %I 100uM
Experimental: (§1) Table printed on a drawing sheet, Figure 5
Head of the field: MMP-1 %I 100uM
(§2) Footnotes: -26 124 % inhibition
(§3) The patent's description of the figure: FIG. 5.
Where the first naming reader finds the target: head: MMP-1 %I 100uM

EcPDF [2] = test system: EcPDF; remark: listed apart in the source
Experimental: Head of the field: EcPDF %I 100uM
as §4
Where the first naming reader finds the target: head: EcPDF %I 100uM

HsPDF [3] = target: T1, HsPDF (Homo sapiens, UniProt Q9HBH1); assay: HsPDF %I 10uM
T1 construct: A 63 amino acid N-terminally truncated human peptide deformylase (HsPDF); 6His (C); made in house; host or cells: E. coli BL21 (DE3), co-transformed with the GroES/EL chaperone plasmid
Experimental: as §1
Head of the field: HsPDF %I 10uM
as §2, §3
Where the first naming reader finds the target: head: HsPDF %I 10uM

HsPDF [4] = target: T1, HsPDF; assay: HsPDF %I 100uM
Experimental: as §1
Head of the field: HsPDF %I 100uM
as §2, §3
Where the first naming reader finds the target: head: HsPDF %I 100uM

APN = APN %I 100uM
Experimental: as §1
Head of the field: APN %I 100uM
as §2, §3
Where the first naming reader finds the target: head: APN %I 100uM

HsPDF [5] = target: T2, HsPDF (Homo sapiens, UniProt Q9HBH1); assay: FLUO functional assay (fluorescamine, substrate fMAHA); assay type: biochemical; settings: 0.5 μM HsPDF, upper limit 10 μM compound
T2 construct: A 63 amino acid N-terminally truncated human peptide deformylase (HsPDF); 6His (C); made in house; host or cells: E. coli BL21 (DE3), co-transformed with the GroES/EL chaperone plasmid
T2 sequence (Q9HBH1 64-243 limits assumed): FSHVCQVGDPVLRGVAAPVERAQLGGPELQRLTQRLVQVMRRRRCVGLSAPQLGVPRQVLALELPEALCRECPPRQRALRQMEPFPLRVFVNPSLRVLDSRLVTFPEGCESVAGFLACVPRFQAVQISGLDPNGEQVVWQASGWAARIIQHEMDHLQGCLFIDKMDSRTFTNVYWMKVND
Experimental: High controls consisted of 1% DMSO (v/v). […] The deformylation reaction mixture was incubated for one hour at room temperature. A separate set of plates containing 3 μL of fluorescamine at 1 mg/mL in 100% DMSO was prepared for the labeling step. Then, 17 μL of the reaction mixture from the original set of plates was transferred to the plates containing the fluorescamine solution for the labeling step. The readout was performed on a Perkin Elmer VICTOR^3 V™ Multi label counter, using an excitation wavelength of 355 nm, and an emission wavelength of 460 nm. […] Compounds inducing a variation of fluorescence greater than 20% were flagged as optically active compounds.
High controls consisted of 1% DMSO (v/v). […] The deformylation reaction mixture was incubated for one hour at room temperature. A separate set of plates containing 3 μL of fluorescamine at 1 mg/mL in 100% DMSO was prepared for the labeling step. Then, 17 μL of the reaction mixture from the original set of plates was transferred to the plates containing the fluorescamine solution for the labeling step. The readout was performed on a Perkin Elmer VICTOR3 V™ Multi label counter, using an excitation wavelength of 355 nm, and an emission wavelength of 460 nm.

SMILES	EcPDF %I 10uM (EcPDF [1]) [%I]	MMP-1 %I 100uM (MMP-1) [%I]	EcPDF %I 100uM (EcPDF [2]) [%I]	HsPDF %I 10uM (HsPDF [3]) [%I]	HsPDF %I 100uM (HsPDF [4]) [%I]	APN %I 100uM (APN) [%I]	IC50 (HsPDF [5]) [nM]
COc1ccc(C(=O)c2coc3c2C(=O)C(=O)C=C3Cl)cc1 [SKC-BF-03, 7-Chloro-3-(4-methoxybenzoyl)-benzofuran-4,5-dione]	-6						
COc1ccc(C(=O)c2coc3c2C(=O)C(=O)C(Cl)=C3Cl)cc1 [SKC-BF-05, 6,7-Dichloro-3-(4-methoxy-benzoyl)-benzofuran-4,5-dione]	0	-19	1				
COc1ccc(C(=O)c2coc3c2C(=O)C(=O)C(Br)=C3)cc1 [SKC-BF-06, 6-Bromo-3-(4-methoxybenzoyl)-benzofuran-4,5-dione]				29			
COc1cc(C(=O)c2coc3c2C(=O)C(=O)C(Cl)=C3Cl)cc(OC)c1OC [SKC-BF-11, 6,7-Dichloro-3-(3,4,5-trimethoxy-benzoyl)-benzofuran-4,5-dione]		32	27				
O=C(c1ccccc1)c1coc2ccc(O)cc12 [SKC-BF-Int3, (5-Hydroxy-benzofuran-3-yl)-phenyl-methanone]	7		7				
O=C(c1ccccc1)c1coc2c(Cl)c(Cl)c(O)cc12 [SKC-BF-Int4, (6,7-Dichloro-5-hydroxy-benzofuran-3-yl)-phenyl-methanone]	6	-20	1	8	24	6	
COc1ccc(C(=O)c2coc3cc(Br)c(O)cc23)cc1 [SKC-BF-Int7A, (6-Bromo-5-hydroxy-benzofuran-3-yl)-(4-methoxyphenyl)-methanone]	-8		-14	-17	-5	-17	
COc1ccc(C(=O)c2coc3c(Br)cc(O)cc23)cc1 [SKC-BF-Int7B, (7-Bromo-5-hydroxy-benzofuran-3-yl)-(4-methoxyphenyl)-methanone]	18	-19	9			-5	
COc1ccc(C(=O)c2coc3ccc(O)c(Br)c23)cc1 [SKC-BF-Int7C, (4-Bromo-5-hydroxy-benzofuran-3-yl)-(4-methoxyphenyl)-methanone]	-4		-4	3	-20	-14	
COc1ccc(C(=O)c2coc3c(Br)cc(O)c(Br)c23)cc1 [SKC-BF-Int7D, (4,7-Dibromo-5-hydroxy-benzofuran-3-yl)-(4-methoxy-phenyl)-methanone]			-8	0	-9		
COc1ccc(C(=O)c2coc3ccc(O)cc23)cc1 [SKC-BF-Int9, (5-Hydroxy-benzofuran-3-yl)-(4-methoxyphenyl)-methanone]	5					4	
COc1ccc(C(=O)c2coc3cc(Cl)c(O)c(Cl)c23)cc1 [SKC-BF-Int10D, (4,6-Dichloro-5-hydroxy-benzofuran-3-yl)-(4-methoxyphenyl)-methanone]	4		3	21	26		
COc1ccc(C(=O)c2coc3c(Cl)cc(O)c(Cl)c23)cc1 [SKC-BF-Int10E, (4,7-Dichloro-5-hydroxy-benzofuran-3-yl)-(4-methoxy-phenyl)-methanone]		-4	-4		9	-4	
COc1ccc(C(=O)c2coc3c(Cl)c(Cl)c(O)cc23)cc1 [SKC-BF-Int10F, (6,7-Dichloro-5-hydroxy-benzofuran-3-yl)-(4-methoxyphenyl)-methanone]				4		-4	
COc1ccc(C(=O)c2coc3ccc(O)cc23)cc1OC [SKC-BF-Int13, (3,4-Dimethoxy-phenyl)-(5-hydroxy-benzofuran-3-yl)-methanone]	-26	3	7	-6	8		
COc1ccc(C(=O)c2coc3c(Br)c(Br)c(O)cc23)cc1OC [SKC-BF-Int14, (6,7-Dibromo-5-hydroxy-benzofuran-3-yl)-(3,4-dimethoxy-phenyl)-methanone]	3	-20	-20	3		-6	
COc1ccc(C(=O)c2coc3c(Cl)c(Cl)c(O)cc23)cc1OC [SKC-BF-Int16, (6,7-Dichloro-5-hydroxy-benzofuran-3-yl)-(3,4-dimethoxy-phenyl)-methanone]	4		-6	-24	-21		
COc1cc(C(=O)c2coc3ccc(O)cc23)cc(OC)c1OC [SKC-BF-Int19]		19	7	4	31		
COc1cc(C(=O)c2coc3c(Br)c(Br)c(O)cc23)cc(OC)c1OC [SKC-BF-Int21, (6,7-Dibromo-5-hydroxy-benzofuran-3-yl)-(3,4,5-trimethoxy-phenyl)methanone]	4		7		5		
COc1cc(C(=O)c2coc3c(Cl)c(Cl)c(O)cc23)cc(OC)c1OC [SKC-BF-Int22, (6,7-Dichloro-5-hydroxy-benzofuran-3-yl)-(3,4,5-trimethoxy-phenyl)methanone]	4	-14	2		18	2	
COc1ccc(C(=O)c2coc3c2C(=O)C(=O)c2ccccc2-3)cc1OC [SKC-NF-02, 3-(3,4-Dimethoxy-benzoyl)-naphtho[1,2-b]furan-4,5-dione]	17	21	30	18	36	20	
COc1cc(C(=O)c2coc3c2C(=O)C(=O)c2ccccc2-3)cc(OC)c1OC [SKC-NF-03, 3-(3,4,5-Trimethoxy-benzoyl)-naphtho[1,2-b]furan-4,5-dione]	18	21	21	25			
O=C1C(=O)c2c(C(=O)c3ccc(-n4ccnc4)cc3)coc2C(Br)=C1Br [SKI 417499, 3-(4-(1H-imidazol-1-yl)benzoyl)-6,7-dibromobenzofuran-4,5-dione]							1800
O=C1C(=O)c2c(C(=O)c3ccc4c(c3)OCCO4)coc2C(Br)=C1Br [SKI 417504, 6,7-dibromo-3-(2,3-dihydrobenzo[b][1,4]dioxine-6-carbonyl)benzofuran-4,5-dione]							2300
